Reference: PubChem BioAssay (NCI)
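In this assay, cells in 96-well plates receive the compound at five concentrations for 48 hours. Endpoints are linearly interpolated between the surrounding concentrations. TGI: concentration producing complete growth inhibition.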

Columns and labels:
Test in all cases: NCI tumour cell line growth inhibition, 48 h
SK-MEL-2 melanoma = test system: SK-MEL-2 melanoma
A549 NSCLC = test system: A549 NSCLC
NCI-H23 lung = test system: NCI-H23 lung
K-562 leukemia = test system: K-562 leukemia
M14 melanoma = test system: M14 melanoma
KM12 colon = test system: KM12 colon
NCI/ADR-RES ovarian = test system: NCI/ADR-RES ovarian
SK-MEL-28 melanoma = test system: SK-MEL-28 melanoma
OVCAR-4 ovarian = test system: OVCAR-4 ovarian
RXF 393 renal = test system: RXF 393 renal
SF-539 CNS = test system: SF-539 CNS
HT29 colon = test system: HT29 colon
NCI-H460 lung = test system: NCI-H460 lung
MCF7 breast = test system: MCF7 breast
EKVX NSCLC = test system: EKVX NSCLC
UO-31 renal = test system: UO-31 renal
SF-295 CNS = test system: SF-295 CNS
OVCAR-5 ovarian = test system: OVCAR-5 ovarian
OVCAR-8 ovarian = test system: OVCAR-8 ovarian
CAKI-1 renal = test system: CAKI-1 renal

| Structure (SMILES) | TGI (SK-MEL-2 melanoma) [µM] | TGI (A549 NSCLC) [µM] | TGI (NCI-H23 lung) [µM] | TGI (K-562 leukemia) [µM] | TGI (M14 melanoma) [µM] | TGI (KM12 colon) [µM] | TGI (NCI/ADR-RES ovarian) [µM] | TGI (SK-MEL-28 melanoma) [µM] | TGI (OVCAR-4 ovarian) [µM] | TGI (RXF 393 renal) [µM] | TGI (SF-539 CNS) [µM] | TGI (HT29 colon) [µM] | TGI (NCI-H460 lung) [µM] | TGI (MCF7 breast) [µM] | TGI (EKVX NSCLC) [µM] | TGI (UO-31 renal) [µM] | TGI (SF-295 CNS) [µM] | TGI (OVCAR-5 ovarian) [µM] | TGI (OVCAR-8 ovarian) [µM] | TGI (CAKI-1 renal) [µM] |
| --- | --- | --- | --- | --- | --- | --- | --- | --- | --- | --- | --- | --- | --- | --- | --- | --- | --- | --- | --- | --- |
| CC(=O)O[C@H]1CC[C@@]2(C)C(=CC[C@@H]3[C@@H]2CC[C@]2(C)C(=O)/C(=C\c4ccccc4)C[C@@H]32)C1 | > 100 | > 100 | > 100 | > 100 | > 100 | > 100 | > 100 | > 100 | > 100 | > 100 | > 100 | > 100 | > 100 | > 100 | > 100 | > 100 | > 100 | > 100 | > 100 | > 100 |
| COc1cc(CCNC2=CC(=O)c3ncccc3C2=O)ccc1O | 9.79 | 6.44 | 11.8 | 17.7 | 3.05 | 24.9 | > 23.3 | 4.09 | 12.1 | 18 | 7.83 | 28.4 | 2.71 | 6.06 | 37.9 | 17.3 | 4.02 | 22.7 | 14.3 | 12 |
| NS(=O)(=O)c1ccc(NNc2c3ccccc3nc3c(C(=O)Nc4ccc(S(N)(=O)=O)cc4)cccc23)cc1 | 54.4 | > 100 | > 100 | 62.1 | > 100 | > 100 | > 100 | > 100 | 75.1 | 64.5 | > 100 | 72.4 | > 100 | > 100 | > 100 | > 100 | > 100 | > 100 | > 100 | > 100 |
| COc1ccccc1Nc1nc(N)nc(N)c1N | > 100 | > 100 | > 100 | > 100 | > 100 | > 100 | > 100 | > 100 | > 100 | > 100 | > 100 | > 100 | > 100 | > 100 | > 100 | > 100 | 68.5 | > 100 | > 100 | > 100 |
| C(#C[C@@]12CCC[C@@H]1NCO2)c1ccc2c(c1)OCO2 | > 100 | > 100 | > 100 | 60.2 | 73.1 | > 100 | > 100 | > 100 | > 100 | > 100 | > 100 | > 100 | > 100 | > 100 | > 100 | > 100 | > 100 | > 100 | > 100 | > 100 |
